Here are results for 1 molecule from patent publication US20050196375A1, “Methods of applying antibiotic compounds to polyurethane biomaterials using textile dyeing technology” (priority 2000, published 2005).

Assay in data set [1]: not given
The source holds these as a separate data set.

Regarding `O=C(O)c1cn(C2CC2)c2cc(N3CCNCC3)c(F)cc2c1=O` [cipro, ciprofloxacin], under “T 318.15 K, RT ln K”, the “standard affinity of cipro for cPU” value is 1.12 kcal/mol. The same molecule showed a saturation value (as quoted in the description) of 0.45 g/kg. Besides, the “exhaustion of cipro on cPU” value in data set [1] (applied concentration 0.5% owf, pH 8.6, 20:1, 45° C., 3.5 hours) is “about 60%”. Besides, in data set [1] (dyeing temperature 55° C., pH 8.6, 20:1, 2% owf, 3.5 hours), the “ciprofloxacin taken up by cPU” value amounted to 70%. For the same molecule, the “cipro exhausted on cPU” value in data set [1] (dyeing time 3.5 hours, pH 8.6, 20:1, 2% owf, 45° C.) is given as “about 61%”.
